Experimental data reported in patent publication US20260092061A1, “COMPOUNDS FOR TARGETED PROTEIN DEGRADATION” (Amphista Therapeutics Limited, priority 2022, published 2026).

Molecular target: T1, BRD9 (Homo sapiens, UniProt Q9H8M2)
T1 sequence (Q9H8M2 1-597): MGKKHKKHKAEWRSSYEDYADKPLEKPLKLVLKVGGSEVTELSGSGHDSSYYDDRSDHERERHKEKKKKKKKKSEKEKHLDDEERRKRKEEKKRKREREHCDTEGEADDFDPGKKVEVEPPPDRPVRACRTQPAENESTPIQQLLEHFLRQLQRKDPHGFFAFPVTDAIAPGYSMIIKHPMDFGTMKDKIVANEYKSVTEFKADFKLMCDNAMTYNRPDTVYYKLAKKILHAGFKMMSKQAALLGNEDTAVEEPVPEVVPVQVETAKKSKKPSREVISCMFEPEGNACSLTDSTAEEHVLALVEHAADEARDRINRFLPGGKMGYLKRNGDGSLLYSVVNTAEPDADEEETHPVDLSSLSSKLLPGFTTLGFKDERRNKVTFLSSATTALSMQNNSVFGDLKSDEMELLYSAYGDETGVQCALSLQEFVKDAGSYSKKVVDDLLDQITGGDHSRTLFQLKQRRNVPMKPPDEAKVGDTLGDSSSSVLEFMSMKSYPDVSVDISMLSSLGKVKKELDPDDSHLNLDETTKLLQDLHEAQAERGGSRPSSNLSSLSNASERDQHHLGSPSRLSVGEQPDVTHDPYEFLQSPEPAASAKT
Experiment: Degradation of BRD9 (IF), immunofluorescence in MV4-11 cells, 24 hours (Assay Protocol 2)
Type: cell-based
Design: A suspension of MV4-11 cells (ATCC CRL-9591) was prepared; host or cells: MV4-11
Conditions: BRD9 degradation; for DC50: Assay protocol 2, read-out: DC50; for Dmax: MV4-11, Assay protocol 2, read-out: Dmax
How it was run: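 % BRD9 remaining, scaled between DMSO (high) and 100 nM CFT-8634 (low) control wells, derives from mean Alexa 647 contrast in central nuclei by high-content imaging. MV4-11 cells had 24 h compound exposure at 37° C. before PFA fixation, Triton permeabilisation and anti-BRD9 E4Q3F immunostaining.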

Structure (SMILES)	DC50 [nM]	Dmax [%]
COc1cc(-c2cn(C)c(=O)c(C)c2C)cc(OC)c1CN1CCN(Cc2ccc3c(c2)[C@@H](C)N(C(=O)/C(C#N)=C/C(C)(C)C)CC3)CC12CC2 (mixture of isomers) [Compound B199, (E/Z)-2-(7-((4-(2,6-dimethoxy-4-(1,4,5-trimethyl-6-oxo-1,6-dihydropyridin-3yl)benzyl)-4,7-diazaspiro[2.5]octan-7-yl)methyl)-1-methyl-1,2,3,4-tetrahydroisoquinoline-2-carbonyl)-4,4-dimethylpent-2-enenitrile]	25 to 1000	40 to 70
COc1cc(-c2cn(C)c(=O)c(C)c2C)cc(OC)c1CN1CCN(Cc2ccc3c(c2)[C@H](C)N(C(=O)/C(C#N)=C/C(C)(C)C)CC3)CC12CC2 (mixture of isomers) [Compound B200, (E/Z)-2-(7-((4-(2,6-dimethoxy-4-(1,4,5-trimethyl-6-oxo-1,6-dihydropyridin-3yl)benzyl)-4,7-diazaspiro[2.5]octan-7-yl)methyl)-1-methyl-1,2,3,4-tetrahydroisoquinoline-2-carbonyl)-4,4-dimethylpent-2-enenitrile]	1.25 to 10	> 75
COc1cc(-c2cn(C)c(=O)c(C)c2C)cc(OC)c1CN1CCN(Cc2cccc3c2CCN(C(=O)/C(C#N)=C/C(C)(C)C)C3C(C)C)CC1 (mixture of isomers) [Compound C7, (E/Z)-2-(5-((4-(2,6-dimethoxy-4-(1,4,5-trimethyl-6-oxo-1,6-dihydropyridin-3-yl)benzyl)piperazin-1-yl)methyl)-1-isopropyl-1,2,3,4-tetrahydroisoquinoline-2-carbonyl)-4,4-dimethylpent-2-enenitrile]	< 1.25	> 75
COc1cc(-c2cn(C)c(=O)c(C)c2C)cc(OC)c1CN1CCN(Cc2cccc3c2CCN(C(=O)/C(C#N)=C/C(C)(C)C)C3C(C)C)C2(CC2)C1 (mixture of isomers) [Compound C8, (E/Z)-2-(5-((7-(2,6-dimethoxy-4-(1,4,5-trimethyl-6-oxo-1,6-dihydropyridin-3-yl)benzyl)-4,7-diazaspiro[2.5]octan-4-yl)methyl)-1-isopropyl-1,2,3,4-tetrahydroisoquinoline-2-carbonyl)-4,4-dimethylpent-2-enenitrile]	< 1.25	> 75
COc1cc(-c2cn(C)c(=O)c(C)c2C)cc(OC)c1CN1CCN(Cc2cccc3c2CCN(C(=O)/C(C#N)=C/C(C)(C)C)C3C(C)C)CC12CC2 (mixture of isomers) [Compound C10, (E/Z)-2-(5-((4-(2,6-dimethoxy-4-(1,4,5-trimethyl-6-oxo-1,6-dihydropyridin-3-yl)benzyl)-4,7-diazspiro[2.5-]octan-7-yl)methyl)-1-isopropyl-1,2,3,4-tetrahydroisoquinoline-2-carbonyl)-4,4-dimethylpent-2-enenitrile]	1.25 to 10	> 75
COc1cc(-c2cn(C)c(=O)c(C)c2C)cc(OC)c1CN1CCCN(Cc2cccc3c2CCN(C(=O)/C(C#N)=C/C(C)(C)C)C3C(C)C)CC1 (mixture of isomers) [Compound C11, (E/Z)-2-(5-((4-(2,6-dimethoxy-4-(1,4,5-trimethyl-6-oxo-1,6-dihydropyridin-3-yl)benzyl)-1,4-diazepan-1-yl)methyl)-1-isopropyl-1,2,3,4-tetrahydroisoquinoline-2-carbonyl)-4,4-dimethylpent-2-enenitrile]	1.25 to 10	40 to 70
COc1cc(-c2cn(C)c(=O)c(C)c2C)cc(OC)c1CN1C[C@H](C)N(Cc2cccc3c2CCN(C(=O)/C(C#N)=C/C(C)(C)C)C3C(C)C)C[C@H]1C (mixture of isomers) [Compound C12, (E/Z)-2-(5-(((2S,5R)-4-(2,6-dimethoxy-4-(1,4,5-trimethyl-6-oxo-1,6-dihydropyridin-3-yl)benzyl)-2,5-dimethylpiperazin-1-yl)methyl)-1-isopropyl-1,2,3,4-tetrahydroisoquinoline-2-carbonyl)-4,4-dimethylpent-2-enenitrile]	25 to 1000	70 to 75
COc1cc(-c2cn(C)c(=O)c(C)c2C)cc(OC)c1CN1CCN(Cc2cccc3c2CCN(C(=O)/C(C#N)=C/C(C)(C)C)C3C(F)F)C2(CC2)C1 (mixture of isomers) [Compound C13]	< 1.25	> 75
COc1cc(-c2cn(C)c(=O)c(C)c2C)cc(OC)c1CN1CCN(Cc2cccc3c2CCN(C(=O)/C(C#N)=C/C(C)(C)C)C3C(C)C)[C@@H](C)C1 (mixture of isomers) [Compound C14, (E/Z)-2-(5-(((S)-4-(2,6-dimethoxy-4-(1,4,5-trimethyl-6-oxo-1,6-dihydropyridin-3-yl)benzyl)-2-methylpiperazin-1-yl)methyl)-1-isopropyl-1,2,3,4-tetrahydroisoquinoline-2-carbonyl)-4,4-dimethylpent-2-enenitrile]	25 to 1000	> 75
CCC1c2cccc(CN3CCN(Cc4c(OC)cc(-c5cn(C)c(=O)c(C)c5C)cc4OC)CC34CC4)c2CCN1C(=O)/C(C#N)=C/C(C)(C)C (mixture of isomers) [Compound C15, (E/Z)-2-(5-((7-(2,6-dimethoxy-4-(1,4,5-trimethyl-6-oxo-1,6-dihydropyridin-3-yl)benzyl)-4,7-diazaspiro[2.5]octan-4-yl)methyl)-1-ethyl-1,2,3,4-tetrahydroisoquinoline-2-carbonyl)-4,4-dimethylpent-2-enenitrile]	< 1.25	> 75
COc1cc(-c2cn(C)c(=O)c(C)c2C)cc(OC)c1CN1CCN(Cc2cccc3c2CCN(C(=O)/C(C#N)=C/C(C)(C)C)C3C2CC2)C2(CC2)C1 (mixture of isomers) [Compound C16, (E/Z)-2-(1-cyclopropyl-5-((7-(2,6-dimethoxy-4-(1,4,5-trimethyl-6-oxo-1,6-dihydropyridin-3-yl)benzyl)-4,7-diazaspiro[2.5]octan-4-yl)methyl)-1,2,3,4-tetrahydroisoquinoline-2-carbonyl)-4,4-dimethylpent-2-enenitrile]	< 1.25	> 75

The next lines start with the values.

DC50 [nM]	Dmax [%]	Structure (SMILES)
1.25 to 10	> 75	CCCC1c2cccc(CN3CCN(Cc4c(OC)cc(-c5cn(C)c(=O)c(C)c5C)cc4OC)CC34CC4)c2CCN1C(=O)/C(C#N)=C/C(C)(C)C (mixture of isomers) [Compound C17, (E/Z)-2-(5-((7-(2,6-dimethoxy-4-(1,4,5-trimethyl-6-oxo-1,6-dihydropyridin-3-yl)benzyl)-4,7-diazaspiro[2.5]octan-4-yl)methyl)-1-propyl-1,2,3,4-tetrahydroisoquinoline-2-carbonyl)-4,4-dimethylpent-2-enenitrile]
1.25 to 10	> 75	COCC1(OC)c2cccc(CN3CCN(Cc4c(OC)cc(-c5cn(C)c(=O)c(C)c5C)cc4OC)CC34CC4)c2CCN1C(=O)/C(C#N)=C/C(C)(C)C (mixture of isomers) [Compound C18, (E/Z)-2-(5-((7-(2,6-dimethoxy-4-(1,4,5-trimethyl-6-oxo-1,6-dihydropyridin-3-yl)benzyl)-4,7-diazaspiro[2.5]octan-4-yl)methyl)-1-methoxy-1-(methoxymethyl)-1,2,3,4-tetrahydroisoquinoline-2-carbonyl)-4,4-dimethylpent-2-enenitrile]
1.25 to 10	70 to 75	COc1cc(-c2cn(C)c(=O)c(C)c2C)cc(OC)c1CN1CCN(Cc2cccc3c2CCN(C(=O)/C(C#N)=C/c2cccc(Br)n2)C3C(C)C)CC1 (mixture of isomers) [Compound C21, (E/Z)-3-(6-bromopyridin-2-yl)-2-(5-((4-(2,6-dimethoxy-4-(1,4,5-trimethyl-6-oxo-1,6-dihydropyridin-3-yl)benzyl)piperazin-1-yl)methyl)-1-isopropyl-1,2,3,4-tetrahydroisoquinoline-2-carbonyl)acrylonitrile]
1.25 to 10	> 75	COc1cc(-c2cn(C)c(=O)c(C)c2C)cc(OC)c1CN1CCN(Cc2cccc3c2CCN(C(=O)/C(C#N)=C/C(C)C)C3C(C)C)CC1 (mixture of isomers) [Compound C22, (E/Z)-2-(5-((4-(2,6-dimethoxy-4-(1,4,5-trimethyl-6-oxo-1,6-dihydropyridin-3-yl)benzyl)piperazin-1-yl)methyl)-1-isopropyl-1,2,3,4-tetrahydroisoquinoline-2-carbonyl)-4-methylpent-2-enenitrile]
< 1.25	> 75	COc1cc(-c2cn(C)c(=O)c(C)c2C)cc(OC)c1CN1CCN(Cc2cccc3c2CCN(C(=O)/C(C#N)=C/C2(C)CCOCC2)C3C(C)C)C2(CC2)C1 (mixture of isomers) [Compound C23, (E/Z)-2-(5-((7-(2,6-dimethoxy-4-(1,4,5-trimethyl-6-oxo-1,6-dihydropyridin-3-yl)benzyl)-4,7-diazaspiro[2.5]octan-4-yl)methyl)-1-isopropyl-1,2,3,4-tetrahydroisoquinoline-2-carbonyl)-3-(4-methyltetrahydro-2H-pyran-4-yl)acrylonitrile]
